Several values for one entry are separate records, joined by “and”; a condition that tells them apart may be missing. Equal values may be shown once. Read-outs that look alike come from different tables or passages of the source.
Assays:
[1] = tested on: SARS‐CoV‐2 (hCoV‐19/Korea/KCDC06/2020, wild type); test: microbe, parasite or virus in culture; assay type: cell-based
in vitro [2] = conditions: human
SARS‐CoV‐2 M^pro = SARS‐CoV‐2 M^pro (Severe acute respiratory syndrome coronavirus 2, UniProt P0DTD1); test: SARS‐CoV‐2 main protease enzymatic assay (FRET inhibitor screening kit); assay type: biochemical; conditions: for inhibition at 5 µM: read-out: Inhibitionrate at @5μM
in vitro [3] = conditions: African green monkey
SARS‐CoV‐2 [4] = test: microbe, parasite or virus in culture; assay type: cell-based
SARS-CoV-2 M^pro = conditions: cited from earlier work
[5] = cited from earlier work
SARS‐CoV‐2 [6] = conditions: Vero E6; cited from earlier work
[7] = cytotoxicity; cited from earlier work
[8] = Severe acute respiratory syndrome coronavirus 2, Calu-3, Calu‐3 cells, racemate, enantiomers and […] measured in the same system, read-out: EC50, anti‐SARS‐CoV‐2 activity in Calu‐3 cells (Figure 3B)
[9] = Severe acute respiratory syndrome coronavirus 2, Calu-3, Calu‐3 cells, with CP‐100356, read-out: EC50 ± SD, Calu‐3 cells, with P‐gp inhibitor
[10] = Severe acute respiratory syndrome coronavirus 2, Calu-3, Calu‐3 cells, without CP‐100356, read-out: EC50 ± SD, Calu‐3 cells, without P‐gp inhibitor
[11] = Severe acute respiratory syndrome coronavirus 2, Vero cells, with CP‐100356, read-out: EC50 ± SD, Vero cells, with P‐gp inhibitor
[12] = Severe acute respiratory syndrome coronavirus 2, Vero cells, without CP‐100356, read-out: EC50 ± SD, Vero cells, without P‐gp inhibitor
[13] = Calu‐3 cells, without CP‐100356, read-out: EC50 ± SD, Calu‐3 cells, without P‐gp inhibitor

Row | SMILES | EC50 [1, 9] [µM] | EC50 [1, 10] [µM] | CC50 at 2 day (in vitro [2]; CC50, Calu‐3 cells, MTT assay) [µM] | IC50 (SARS‐CoV‐2 M^pro) | inhibition of M^pro enzymatic activity, first round of screening (SARS‐CoV‐2 M^pro) [%] | inhibition at 5 µM (SARS‐CoV‐2 M^pro) [%] | CC50 at 2 day (in vitro [3]) [µM] | EC50 (SARS‐CoV‐2 [4]; [11]) [µM] | EC50 (SARS‐CoV‐2 [4]; [12]) [µM] | further results
1 | Cc1cncc(C(=O)N2C[C@H]3CC[C@@H](C2)N3C(c2cccc(F)c2)c2cn(CCc3ccsc3)nn2)c1 (some centres unmarked) [Compound C5N17] | 0.028 ± 0.002 | 0.166 ± 0.011 | > 100 | 0.177 ± 0.016 µM | 101 | 98.7 | > 100 | 0.363 ± 0.029 | 1.57 ± 0.131 | EC50 [1, 8]: 0.2 ± 0.027 µM; CC50 at 2 day (in vitro [2]; CC50 (Table 3), Calu‐3 cells): > 100 µM
2 | O=C(c1cccnc1)N1CCN(C(c2cccc(F)c2)c2cn(CCN3C(=O)c4ccccc4C3=O)nn2)CC1 (centres unmarked) [Compound C4N21] | 4.02 ± 0.566 | 74.4 ± 36.3 | – | – | 82 | 80.2 | 69.8 ± 1.05 | > 10 | > 69.8 | CC50 at 2 day (in vitro [2]): > 100 µM; IC50 (SARS‐CoV‐2 M^pro; purified compounds, FRET assay): 1.3 ± 0.017 µM
3 | Cc1cncc(C(=O)N2C[C@H]3CC[C@@H](C2)N3C(c2cccc(F)c2)c2cn(C[S+]([O-])c3ccccc3)nn2)c1 (some centres unmarked) [Compound C5N41] | 0.097 ± 0.005 | 1.78 ± 0.001 | > 100 | 0.243 ± 0.011 µM | 100 | 92.3 | > 100 | 2.27 ± 0.089 | 3.67 ± 0.513 | –
4 | Cc1cncc(C(=O)N2C[C@H]3CC[C@@H](C2)N3C(c2cccc(F)c2)c2cn(Cc3ccc([N+](=O)[O-])cc3)nn2)c1 (some centres unmarked) [Compound C5N6] | 1.05 ± 0.014 | < 1 | > 100 | 2.5 ± 0.013 µM | 88 | 68.8 | > 100 | 1.74 ± 0.238 | 1.83 ± 0.03 | EC50 [1, 13]: 0.767 ± 0.156 µM
5 | Cc1cncc(C(=O)N2C[C@H]3CC[C@@H](C2)N3C(c2cccc(F)c2)c2cn(CC(N)=O)nn2)c1 (some centres unmarked) [Compound C5N58] | 0.337 | 4.94 ± 0.687 | > 100 | 0.151 ± 0.006 µM | 99 | 100 | > 100 | 1.39 ± 0.171 | > 100 | EC50 ([1]; Calu‐3 cells, with CP‐100356, read-out: EC50 ± SD, Calu‐3 cells, with P‐gp inhibitor): 0.338 ± 0.056 µM
6 | O=C(c1cccnc1)N1C[C@H]2CC[C@@H](C1)N2C(c1cccc(F)c1)c1cn(CCN2C(=O)c3ccccc3C2=O)nn1 (some centres unmarked) [Compound C6N21] | – | – | – | 0.2 ± 0.016 µM | 89 | 95.1 | – | – | – | –
7 | COC(=O)CCCn1cc(C(c2cccc(F)c2)N2[C@@H]3CC[C@H]2CN(C(=O)c2cncc(C)c2)C3)nn1 (some centres unmarked) [Compound C5N39] | 0.253 ± 0.026 | < 1 | > 100 | 0.253 ± 0.01 µM | 96 | 87.6 | > 100 | 1.6 ± 0.249 | 1.87 ± 0.27 | EC50 [1, 13]: 0.899 ± 0.312 µM
8 | Cc1cncc(C(=O)N2C[C@H]3CC[C@@H](C2)N3C(c2cccc(F)c2)c2cn(CCc3ccccc3)nn2)c1 (some centres unmarked) [Compound C5N16] | 0.08 ± 0.002 | – | > 100 | 0.283 ± 0.018 µM | 99 | 93 | > 100 | 1.89 ± 0.524 | 2 ± 0.021 | –
9 | Cc1cncc(C(=O)N2C[C@H]3CC[C@@H](C2)N3C(c2cccc(F)c2)c2cn(Cc3cccc(F)c3)nn2)c1 (some centres unmarked) [Compound C5N64] | 0.479 ± 0.026 | 2.94 ± 0.124 | > 100 | 1.23 ± 0.1 µM | 93 | 79.9 | > 100 | 2.86 ± 0.131 | 4.2 ± 0.738 | –
10 | O=C(c1cccnc1)N1C[C@H]2CC[C@@H](C1)N2C(c1cccc(F)c1)c1cn(CCc2ccsc2)nn1 (some centres unmarked) [Compound C6N17] | – | – | – | 0.3 ± 0.012 µM | 90 | 91.7 | – | – | – | –
11 | O=C(c1cccnc1)N1CCN(C(c2cccc(F)c2)c2cn(CCc3ccsc3)nn2)CC1 (centres unmarked) [Compound C4N17] | 0.88 ± 0.109 | 1.85 ± 0.139 | – | – | 86 | 72.3 | > 100 | 2.46 ± 0.314 | 2.74 ± 0.11 | CC50 at 2 day (in vitro [2]): > 100 µM; IC50 (SARS‐CoV‐2 M^pro; purified compounds, FRET assay): 1.87 ± 0.013 µM
12 | O=C(NCc1cccs1)C1CN(C(=O)c2cccnc2)CCN1c1ccc(Cl)c(Cl)c1 (centres unmarked) [GC‐14, reference compound] | 0.755 ± 0.046 | 1.42 ± 0.057 | > 100 | 0.8 µM and 0.75 µM | 98 | – | – | 3.42 ± 0.443 | – | IC50 (SARS-CoV-2 M^pro): 0.4 µM; half‐life [5]: 1.72 h; oral bioavailability [5]: 7.2%; EC50 (SARS‐CoV‐2 [6]): 1.1 µM
13 | Cc1cncc(C(=O)N2C[C@H]3CC[C@@H](C2)N3C(c2cccc(F)c2)c2cn(Cc3cccc([N+](=O)[O-])c3)nn2)c1 (some centres unmarked) [Compound C5N5] | 2.56 ± 0.086 | 2.86 ± 0.395 | > 100 | 1.23 ± 0.001 µM | 93 | 79.2 | > 100 | 1.85 ± 0.526 | 1.79 ± 0.021 | –
14 | Cc1cncc(C(=O)N2C[C@H]3CC[C@@H](C2)N3C(c2cccc(F)c2)c2cn(CS(=O)(=O)c3ccccc3)nn2)c1 (some centres unmarked) [Compound C5N42] | 0.133 ± 0.019 | 1.77 ± 0.055 | > 100 | 0.196 ± 0.009 µM | 101 | 96.2 | > 100 | 3.05 ± 0.206 | 3.68 ± 0.952 | –
15 | Cc1cncc(C(=O)N2C[C@H]3CC[C@@H](C2)N3C(c2cccc(F)c2)c2cccc(F)c2)c1 [AA‐625, reference compound] | < 0.01 | 0.15 | > 100 | 0.9 µM and 0.904 µM | 57 | 87.9 | 43.9 ± 2.94 | 2.02 ± 0.076 | 2.05 ± 0.056 | EC50 [1, 13]: 0.148 ± 0.007 µM; CC50 at 2 day (in vitro [2]; CC50 (Table 3), Calu‐3 cells): 42.9 ± 0.414 µM; CC50 [7]: 22.5 µM
16 | Cc1cncc(C(=O)N2C[C@H]3CC[C@@H](C2)N3C(c2cccc(F)c2)c2cn(CCN3C(=O)c4ccccc4C3=O)nn2)c1 (some centres unmarked) [Compound C5N21] | 0.259 ± 0.043 | < 1 | > 100 | 0.15 ± 0.004 µM | 100 | 99.5 | > 100 | 1.38 ± 0.119 | 16.2 ± 0.41 | EC50 [1, 13]: 0.591 ± 0.011 µM
17 | Cc1cncc(C(=O)N2C[C@H]3CC[C@@H](C2)N3C(c2cccc(F)c2)c2cn(Cc3ccc(S(C)(=O)=O)cc3)nn2)c1 (some centres unmarked) [Compound C5N50] | 2.9 ± 0.263 | 17 ± 0.778 | > 100 | 2.4 ± 0.1 µM | 90 | 69 | > 100 | 6.57 ± 0.43 | 36.1 ± 1.38 | –
18 | Cc1cncc(C(=O)N2C[C@H]3CC[C@@H](C2)N3[C@@H](c2cccc(F)c2)c2cn(CCc3ccsc3)nn2)c1 [Compound C5N17A] | – | – | – | 3.18 µM | – | 53.2 | – | – | – | EC50 [1, 8]: 5.95 µM; CC50 at 2 day (in vitro [2]; CC50, column 9, after the Calu-3 EC50 columns): > 100 µM
19 | Cn1cnc(Cn2c(=O)[nH]/c(=N\c3cc4cn(C)nc4cc3Cl)n(Cc3cc(F)c(F)cc3F)c2=O)n1 [Ensitrelvir, reference compound] | – | – | > 100 | – | – | – | > 100 | – | – | EC50 ([1]; Severe acute respiratory syndrome coronavirus 2, Calu-3, read-out: EC50 ± SD, Calu‐3 cells, with P‐gp inhibitor): < 0.046 µM; EC50 ([1]; Severe acute respiratory syndrome coronavirus 2, Calu-3, read-out: EC50 ± SD, Calu‐3 cells, without P‐gp inhibitor): 0.11 µM; EC50 ([1]; read-out: EC50 ± SD, Calu‐3 cells, without P‐gp inhibitor): 0.112 ± 0.011 µM; EC50 (SARS‐CoV‐2 [4]; Severe acute respiratory syndrome coronavirus 2, Vero, read-out: EC50 ± SD, Vero cells, with P‐gp inhibitor): < 0.046 µM; EC50 (SARS‐CoV‐2 [4]; Severe acute respiratory syndrome coronavirus 2, Vero, read-out: EC50 ± SD, Vero cells, without P‐gp inhibitor): 0.165 ± 0.015 µM
20 | CNC(=O)Cn1cc(C(c2cccc(F)c2)N2[C@@H]3CC[C@H]2CN(C(=O)c2cncc(C)c2)C3)nn1 (some centres unmarked) [Compound C5N57] | 2.33 ± 0.066 | 4.04 ± 0.986 | > 100 | 0.58 ± 0.005 µM | 96 | 85.1 | > 100 | > 10 | > 100 | –
